Experimental findings from BindingDB's records for doi:10.7270/Q2251GKR (Vanderbilt Screening Center for GPCRs, Ion Channels and …, 2010) are described below.

For this experiment, the target named is T1, Muscarinic acetylcholine receptor M4 (Rattus norvegicus, UniProt P08485).
T1 sequence (P08485 whole entry): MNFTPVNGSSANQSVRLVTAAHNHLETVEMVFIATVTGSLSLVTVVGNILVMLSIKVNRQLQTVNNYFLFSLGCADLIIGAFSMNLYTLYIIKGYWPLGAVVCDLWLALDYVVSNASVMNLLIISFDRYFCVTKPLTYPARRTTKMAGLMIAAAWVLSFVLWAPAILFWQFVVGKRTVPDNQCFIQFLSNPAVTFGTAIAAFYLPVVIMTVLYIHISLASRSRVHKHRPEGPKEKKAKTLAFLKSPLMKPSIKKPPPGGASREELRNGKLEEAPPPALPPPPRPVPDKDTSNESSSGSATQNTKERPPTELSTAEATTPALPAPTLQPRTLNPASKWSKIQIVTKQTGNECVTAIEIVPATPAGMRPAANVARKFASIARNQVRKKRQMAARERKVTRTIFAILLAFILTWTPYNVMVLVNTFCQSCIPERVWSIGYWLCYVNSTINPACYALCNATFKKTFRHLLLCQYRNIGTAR
In words: rat M4 positive allosteric modulator potency, SAR follow-up, cell-based, analogs, calcium mobilization, Gqi5 (AID 1923). On the technique in general: Calcium assays in cells follow changes in intracellular calcium, usually with a dye or a luminescent sensor.

Structures are written as SMILES.

Usually EC50 stands for the concentration at which the effect is half-maximal. `Cc1cc(C)c2c(N)c(C(=O)NCc3ccc4c(c3)OCO4)sc2n1` [3-amino-4,6-dimethyl-N-piperonyl-thieno[2,3-b]pyridine-2-carboxamide]: the 50% effective concentration (EC50) worked out at 369 nM.
